Like-named read-outs stand apart in the source and are kept apart here.
Experiments:
Assay type in all cases: cell-based
[1] = test system: H526 cell line; assay: Cell viability assay for NCI-H526 cell line (EZ-Cytox); conditions: Homo sapiens, NCI-H526, 120 h; H526 cells, 3-fold dilutions 3000 nM to 0.46 nM, 5 days
Outline: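 Read-out was EZ-Cytox colorimetric absorbance at 450 nm, taken after brief plate shaking, with IC50 derived. Before reading, H526 cells had been cultured with test compound for 5 days.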

[2] = molecular target: T1, PLK1 (Homo sapiens, UniProt P53350); assay: Luciferase assay for PLK1 in HeLa LgBit (Plk1-HiBit KI) cell line; conditions: compound 300 nM, luminescence after 9 hours
T1 construct: endogenous in cells; host or cells: HeLa LgBit (Plk1-HiBit KI): HeLa stably expressing LgBit, with HiBit knocked in at the endogenous Plk1 locus by CRISPR/Cas9
T1 sequence (P53350 whole entry): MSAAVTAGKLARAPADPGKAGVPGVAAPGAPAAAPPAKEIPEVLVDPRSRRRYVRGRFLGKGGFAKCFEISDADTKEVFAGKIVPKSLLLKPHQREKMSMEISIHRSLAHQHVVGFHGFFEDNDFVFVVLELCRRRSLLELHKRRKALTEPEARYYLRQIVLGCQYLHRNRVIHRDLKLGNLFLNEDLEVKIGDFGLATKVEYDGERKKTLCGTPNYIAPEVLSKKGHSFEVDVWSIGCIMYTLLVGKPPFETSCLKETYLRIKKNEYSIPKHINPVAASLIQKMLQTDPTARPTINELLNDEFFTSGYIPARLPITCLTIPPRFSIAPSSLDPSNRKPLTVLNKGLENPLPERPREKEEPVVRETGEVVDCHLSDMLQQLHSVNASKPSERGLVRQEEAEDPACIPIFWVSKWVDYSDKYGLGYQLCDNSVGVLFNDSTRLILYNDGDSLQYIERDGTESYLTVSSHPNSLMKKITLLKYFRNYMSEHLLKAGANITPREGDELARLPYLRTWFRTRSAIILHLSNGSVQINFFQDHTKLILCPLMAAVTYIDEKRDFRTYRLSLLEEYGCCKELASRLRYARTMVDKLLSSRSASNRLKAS
Outline: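 HeLa cells stably expressing LgBit, with HiBit knocked in at the endogenous Plk1 C-terminus, synchronized by 2 mM thymidine block for 24 h, then released and cultured 18 h. Compound added at 300 nM with Endurazine substrate; luminescence tracked in real time and expressed as ratio to DMSO.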

[3] = test system: MRC-5 cell line; assay: Cell viability assay for MRC-5 cell line (EZ-Cytox cytotoxicity experiment); conditions: Homo sapiens, MRC5, 120 h, MRC-5 normal cell line, 5 days
Protocol: 4. Cell Viability Assay for MRC-5 Cell Line
(1) Culture of MRC-5 Cell Line
Passage of cultured cells was maintained within P15.
(2) Treatment of Compounds of the Present Invention
Then, it was cultured in 37° C.
(3) Cytotoxicity Experiment
CO2 incubator for 4 hours.

SMILES	IC50 [1] [µM]	Activity: ratio of the luminescence value of each Exemplary Compound treatment group to DMSO treatment group [2]	IC50 ([3]; highest concentration 10000 nM, N.D. = no cytotoxicity until 10 μM, read-out: Activity: IC50 value to MRC-5 cell line, N.D. cells) [nM]	IC50 ([3]; 3-fold dilutions 10000 nM to 1.52 nM, Exemplary Compounds, numeric values, read-out: Activity: IC50 value (nM) to MRC-5 cell line) [nM]
COc1cc(C(=O)NN2CCC(CN3CCN(c4ccc(NC5CCC(=O)NC5=O)cc4C(F)(F)F)CC3)CC2)ccc1Nc1ncc2c(n1)N(C(C)C)CC(F)(F)C(=O)N2C (stereo not drawn) [Compound 21, 4-((7,7-difluoro-9-isopropyl-5-methyl-6-oxo-6,7,8,9-tetrahydro-5H-pyrimido[4,5-b][1,4]diazepin-2-yl)amino)-N-(4-((4-(4-((2,6-dioxopiperidin-3-yl)amino)-2-(trifluoromethyl)phenyl)piperazin-1-yl)methyl)piperidin-1-yl)-3-methoxybenzamide]	< 0.1	++ (++<0.6)	> 10000	–
COc1cc(C(=O)NCC2CC3(CCN(CC4CCN(c5c(F)cc(NC6CCC(=O)NC6=O)cc5F)CC4)CC3)C2)ccc1Nc1ncc2c(n1)N(C(C)C)CC(F)(F)C(=O)N2C (stereo not drawn) [Compound 30, 4-((7,7-difluoro-9-isopropyl-5-methyl-6-oxo-6,7,8,9-tetrahydro-5H-pyrimido[4,5-b][1,4]diazepin-2-yl)amino)-N-((7-((1-(4-((2,6-dioxopiperidin-3-yl)amino)-2,6-difluorophenyl)piperidin-4-yl)methyl)-7-azaspiro[3.5]nonan-2-yl)methyl)-3-methoxybenzamide]	< 0.03	+++ (+++: <0.3)	–	7870

Source: US20250101025A1, “NOVEL PLK1 DEGRADATION INDUCING COMPOUND” (UPPTHERA, INC., priority 2021, published 2025)
